“And” between values parts separate entries of the source, which are not always exact repeats. Equal values may be shown once. Read-outs that look alike come from different tables or passages of the source.

One compound from patent US20100056555A1, “METHOD OF TREATING RAS ASSOCIATED CANCER” (ENZON PHARMACEUTICALS, INC., priority 2008, published 2010) can be followed below.

The test system of assay [1] is Calu-6 Human Lung Carcinoma cells. The conditions noted are these: Calu-6 xenograft mice; for % T/C / % TGI: day 20; for Observed cures: day 57.
For assay [2] the test system is unchanged. The assay can be described thus: Calu 6 Kras mutant xenografts that failed C225 (Erbitux) therapy. The conditions noted are these: 40 mg/kg q2dx5 after C-225 challenge, Calu-6 xenograft mice.
Assay [3] has as its system SW480 Human colorectal carcinoma cells. The assay can be described thus: SW480 human colorectal xenografts, Erbitux failed tumors. Particulars: 40 mg/kg q2dx7 after C-225 challenge; SW480 xenograft mice; Day 22. On the technique in general: A xenograft is tissue or cells of one species grown in another, often human tumour cells in immunodeficient mice.
Assay [4] shares this test system. The assay can be described thus: Kras mutant xenograft model of human colorectal cancer (SW480), single agent therapy. Particulars: SW480 xenograft mice, Day 22.
Assay [5] concerns MiaPaCA-2 pancreatic cells. The assay can be described thus: Kras mutant pancreatic cancer xenograft model (MiaPaCa-2). In kind it is in vivo, human. The conditions noted are these: MiaPaCa-2 xenograft mice.

For orientation: TGI means the reduction of tumour growth relative to the control group. Low values mean a weaker effect on the tumour, high ones a stronger effect on the tumour. `CCc1c2c(nc3ccc(OC(=O)N4CCC(N5CCCCC5)CC4)cc13)-c1cc3c(c(=O)n1C2)COC(=O)[C@]3(O)CC` [CPT-11, Irinotecan]: the entries for the “% T/C” value in assay [1] (40 mg/kg q2dx5), in assay [1] (80 mg/kg qdx1) and in assay [4] (80 mg/kg qdx1) were 5%, 48% and 66.60%, respectively. The “% TGI” value in assay [1] (40 mg/kg q2dx5) was 95%; in assay [1] (80 mg/kg qdx1), 52%; in assay [2] (day 20), 84%; in assay [3] it was 65.38%; in assay [4] (40 mg/kg q2dx5), 65% and 64.76%; in assay [4] (80 mg/kg qdx1) it was 47% and 46.53%. The Observed cures in assay [1] (40 mg/kg q2dx5), in assay [1] (80 mg/kg qdx1) and in assay [2] (day 57) was 0/8 in each case. Besides, the “day by which animals relapsed” value in assay [1] (40 mg/kg q2d×5) was in the range of 40 to 45 days. The “day by which all animals had to be sacrificed due to excessive tumor burden” value in assay [1] (80 mg/kg qd×1) is 22 to 24 days. For the same compound, the “Percent Change in TV” value in assay [3] is 219.31%; in assay [4] (40 mg/kg q2dx5), 163.62%; in assay [4] (80 mg/kg qdx1) it was 397.75%. Also, the TGI in assay [5] (CPT-11 at corresponding dose level as compound 9 (10 mg/kg, q2d×5)) is reported as 20%; in assay [5] (multiple-dose at MTD of CPT-11 (40 mg/kg q2d×5)), 47%. Also, the “effect on tumor growth” value in assay [5] (single dose at the MTD (80 mg/kg qd×1)) is on record as “no effect on tumor growth”.
